Data as given in patent US20140171358A1, “ANTIMICROBIAL COMPOSITIONS COMPRISING DGLA AND NEOMYCIN SULFATE AND METHODS OF USE THEREOF” (Dignity Sciences Limited, priority 2012, published 2014).

Columns and labels:
Type in all cases: cell-based
P. acnes = test: agar dilution method: growth index and MIC on P. acnes (single compounds and combinations); parameters: key to Growth Index Plate 1 / Growth Index Plate 2 / Growth Index Plate 3 / Growth Index Avg: +++: confluent growth (comparable to control); ++: less confluent growth; +: marked reduction in growth to multiple tiny, single colonies; −: no growth present
Experimental: Several compounds including fatty acids such as DGLA, 15-OHEPA, and 15-HETrE were tested to determine their capacity to inhibit the growth of P. acnes. In an exemplary method, an agar dilution method was used to determine the minimum inhibitory concentration (MIC) of each tested compound. Briefly, the agar dilution method involved preparing a series of concentrations of each compound (e.g., nicotinamide, benzoyl peroxide, adapalene, metronidazole, DGLA, 15-OHEPA, and 15-HETrE) in a Reinforced Clostridial Agar (RCA) media that facilitates growth of P. acnes under anaerobic conditions. An inoculum of P. acnes was prepared by incubation of P. acnes for approximately seven days at 35-37° C. to achieve a ≧1.0 OD600 inoculum of P. acnes in RCM broth. A portion of this inoculum was then added to the surface of each plate as a 10 μL spot and incubated at 35-37° C. for 72 hours or more. Growth of P. acnes was then observed and compared to control plates in which no compound has been added, and positive inhibition plates prepared with erythromycin. […] The growth of P. acnes in the presence of nicotinamide, benzoyl peroxide, adapalene, metronidazole, DGLA, 15-OHEPA, and 15-HETrE was determined with varying concentrations of the compound (see, Table 2). Next, the MIC was determined as the concentration at which a marked reduction (+) occurs in the appearance of growth on the test plate (as per Clinical and Laboratory Standards Institute M11-A7). The compounds tested singly in Example 1 were tested in combination with one another to determine the capacity of the combination to inhibit the growth of P. acnes. In an exemplary method, the MIC was determined for each of the combination as described in Example 1. Briefly, test combinations included DGLA with nicotinamide, benzoyl peroxide, adapalene, or metronidazole; 15-HETrE with nicotinamide, benzoyl peroxide, adapalene, or metronidazole; and 15-OHEPA with nicotinamide, benzoyl peroxide, adapalene, or metronidazole. The tables below show the growth of P. acnes in the presence of 0.4 or 1.0 mg/mL DGLA with varying concentrations of nicotinamide, benzoyl peroxide, adapalene, or metronidazole (Table 3); the growth of P. acnes in the presence of 0.01 or 0.05 mg/mL 15-HETrE with varying concentrations of nicotinamide, benzoyl peroxide, adapalene, or metronidazole (Table 5); and the growth of P. acnes in the presence of 0.5 or 0.1 mg/mL 15-OHEPA with varying concentrations of nicotinamide, benzoyl peroxide, adapalene, or metronidazole (Table 7).

S. aureus = test: paper disc corrected zone of inhibition (CZOI) on Mueller Hinton agar
Experimental: (§1) The compounds tested in Example 1 were tested to determine their capacity to inhibit the growth of a variety of Gram-negative bacteria, Gram-positive bactgeria, fungi and yeast. In an exemplary method, Mueller Hinton agar plates were streaked with 500 μL of a 10^5 colony-forming units/mL culture and allowed to dry for at least one minute. A sterile paper disc (6 mm diameter) was then placed in the middle of each plate using sterile forceps. Twenty microliters of a solution of a known concentration of a test compound in filter-sterilized 95% ethanol were pipetted onto each test plate. Two streaked plates served as positive inhibitory controls and contained 6 mm sterile paper discs with standard tetracycline solutions. Two additional plates served as negative inhibition controls and each contained 6 mm sterile paper discs with 20 μL of filter-sterilized 95% ethanol. Two more plates served as positive growth controls and contained no paper disc or added antibacterial agent. The plates were incubated at 32.5±2° C. for 24±4 hours, after which the corrected zone of inhibition (“CZOI”) was determined as follows: For each plate, the length Y2 and width X2 of the test sample (paper disc) and length Y1 and width X1 of the clear zone were measured (FIG. 1). The CZOI was calculated from these values as shown by the equation below: [formula]

E. coli = test: as above
Experimental: as §1

A. brasiliensis = test: as above
Experimental: as §1

C. striatum = test: as above
Experimental: as §1

S. epidermidis = test: as above
Experimental: as §1

E. faecalis = test: as above
Experimental: as §1

P. aeroginosa = test: as above
Experimental: as §1

C. albicans = test: as above
Experimental: as §1

K. pneumoniae = test: as above
Experimental: as §1

CCCCCC(O)/C=C/C=C\C/C=C\CCCCCCC(=O)O (stereo not drawn) [15-HETrE, 15-Hydroxy-eicosa-8(Z),11(Z),13 (E)-trienoic acid]
1.5 mm: Average CZOI (E. coli; 0.005 mg/mL) | Average CZOI (C. striatum; 0.5 mg/mL) | Average CZOI (P. aeroginosa; 0.005 mg/mL) | Average CZOI (P. aeroginosa; 0.01 mg/mL) | Average CZOI (P. aeroginosa; 0.1 mg/mL) | Average CZOI (C. albicans; 0.1 mg/mL) | Average CZOI (K. pneumoniae; 0.1 mg/mL)
0.75 mm: Average CZOI (S. aureus; 0.05 mg/mL)
0.05 mg/mL: Most Effective Concentration Observed (C. striatum; C. striatum)
3 mm: Average CZOI (A. brasiliensis; 0.5 mg/mL) | Average CZOI (S. epidermidis; 0.01 mg/mL)
2.5 mm: Average CZOI (S. aureus; 0.01 mg/mL) | Average CZOI (K. pneumoniae; 0.005 mg/mL)
1.75 mm: Average CZOI (S. aureus; 0.1 mg/mL) | Average CZOI (A. brasiliensis; 0.005 mg/mL) | Average CZOI (S. epidermidis; 0.005 mg/mL) | Average CZOI (S. epidermidis; 0.5 mg/mL) | Average CZOI (C. albicans; 0.01 mg/mL)
++: Growth Index Avg (P. acnes; varied compound 0.01 mg/mL) | Growth Index Plate 1 (P. acnes; varied compound 0.01 mg/mL) | Growth Index Plate 3 (P. acnes; varied compound 0.01 mg/mL)
no effect on its own: effect on growth of P. acnes on its own (P. acnes; 0.01 mg/ml)
5.75 mm: Average CZOI (E. faecalis; 0.01 mg/mL)
−: Growth Index Avg (P. acnes; varied compound 0.05 mg/mL) | Growth Index Plate 1 (P. acnes; varied compound 0.05 mg/mL) | Growth Index Plate 2 (P. acnes; varied compound 0.05 mg/mL) | Growth Index Plate 3 (P. acnes; varied compound 0.05 mg/mL)
0.005 mg/mL: Lowest Concentration With Observed Inhibition (S. aureus; S. aureus) | Lowest Concentration With Observed Inhibition (E. coli; E. coli) | Lowest Concentration With Observed Inhibition (A. brasiliensis; A. brasiliensis) | Lowest Concentration With Observed Inhibition (C. striatum; C. striatum) | Lowest Concentration With Observed Inhibition (S. epidermidis; S. epidermidis) | Lowest Concentration With Observed Inhibition (E. faecalis; E. faecalis) | Lowest Concentration With Observed Inhibition (P. aeroginosa; P. aeroginosa) | Most Effective Concentration Observed (P. aeroginosa; P. aeroginosa) | Lowest Concentration With Observed Inhibition (C. albicans; C. albicans) | Most Effective Concentration Observed (C. albicans; C. albicans) | Lowest Concentration With Observed Inhibition (K. pneumoniae; K. pneumoniae) | Most Effective Concentration Observed (K. pneumoniae; K. pneumoniae)
2.25 mm: Average CZOI (A. brasiliensis; 0.1 mg/mL) | Average CZOI (C. striatum; 0.05 mg/mL)
3.75 mm: Average CZOI (E. faecalis; 0.005 mg/mL) | Average CZOI (E. faecalis; 0.05 mg/mL)
1.25 mm: Average CZOI (E. coli; 0.1 mg/mL) | Average CZOI (A. brasiliensis; 0.05 mg/mL) | Average CZOI (C. albicans; 0.05 mg/mL) | Average CZOI (C. albicans; 0.5 mg/mL)
2.75 mm: Average CZOI (E. faecalis; 0.5 mg/mL)
3.25 mm: Average CZOI (C. striatum; 0.01 mg/mL) | Average CZOI (C. striatum; 0.1 mg/mL) | Average CZOI (E. faecalis; 0.1 mg/mL)
4 mm: Average CZOI (C. striatum; 0.005 mg/mL)
+++: Growth Index Avg (P. acnes; varied compound 0.00001 mg/mL) | Growth Index Plate 1 (P. acnes; varied compound 0.00001 mg/mL) | Growth Index Plate 2 (P. acnes; varied compound 0.00001 mg/mL) | Growth Index Plate 3 (P. acnes; varied compound 0.00001 mg/mL) | Growth Index Avg (P. acnes; varied compound 0.0001 mg/mL) | Growth Index Plate 1 (P. acnes; varied compound 0.0001 mg/mL) | Growth Index Plate 2 (P. acnes; varied compound 0.0001 mg/mL) | Growth Index Plate 3 (P. acnes; varied compound 0.0001 mg/mL) | Growth Index Avg (P. acnes; varied compound 0.001 mg/mL) | Growth Index Plate 1 (P. acnes; varied compound 0.001 mg/mL) | Growth Index Plate 2 (P. acnes; varied compound 0.001 mg/mL) | Growth Index Plate 3 (P. acnes; varied compound 0.001 mg/mL) | Growth Index Plate 2 (P. acnes; varied compound 0.01 mg/mL)
1 mm: Average CZOI (S. aureus; 0.5 mg/mL) | Average CZOI (E. coli; 0.05 mg/mL) | Average CZOI (E. coli; 0.5 mg/mL) | Average CZOI (A. brasiliensis; 0.01 mg/mL) | Average CZOI (S. epidermidis; 0.05 mg/mL) | Average CZOI (S. epidermidis; 0.1 mg/mL) | Average CZOI (P. aeroginosa; 0.05 mg/mL) | Average CZOI (P. aeroginosa; 0.5 mg/mL) | Average CZOI (K. pneumoniae; 0.05 mg/mL) | Average CZOI (K. pneumoniae; 0.5 mg/mL)
0.5 mg/mL: Most Effective Concentration Observed (A. brasiliensis; A. brasiliensis)
2 mm: Average CZOI (S. aureus; 0.005 mg/mL) | Average CZOI (E. coli; 0.01 mg/mL) | Average CZOI (C. albicans; 0.005 mg/mL) | Average CZOI (K. pneumoniae; 0.01 mg/mL)
0.01 mg/mL: Most Effective Concentration Observed (S. aureus; S. aureus) | Most Effective Concentration Observed (E. coli; E. coli) | Most Effective Concentration Observed (S. epidermidis; S. epidermidis) | Most Effective Concentration Observed (E. faecalis; E. faecalis)
